For data set [1] the following is noted: cited from earlier work.
For data set [2] the following is noted: Genistein provided as a nano suspension in accordance with US 2012/0164190 and 2012/0121654; cited from earlier work.
Data set [3] has as its system uterus, GI tract, esophagus, skin, tumor, lungs. Nature of the data set: Example 1: post mortem tissue weights and histopathology (safety). The data set is classed as in vivo, mouse. Conditions: Example 1, 10 weeks dosing 5 d/wk. The protocol:
At the time of euthanasia organs were harvested and wet tissue weights were measured. In addition to the tissues the weight of the remaining tumor was determined so that the tumor weight can be correlated with the calculated tumor volumes.
The various tissues were fixed in formalin, then processed and embedded in paraffin. Hematoxylin and eosin (H&E) staining was done on 5 micron sections from each of the tissues.
Following euthanasia organ weights were collected for the lungs, uterus, and GI tract. In addition, the tumor was resected and weighed. […]
The examined tissues included the lungs, GI tract (esophagus), uterus, tumor, and the skin near the A549 tumor xenograft. […] All tissues were analyzed microscopically following H&E staining. For these analyses 5 tumors, 5 lung samples, and 5 skin samples were analyzed from each experimental group. In addition, three uterus samples and three esophagus samples from each experimental group were analyzed. All tissue samples were prepared, sectioned, and stained with H&E. Tissues were analyzed for gross morphology and H&E sections were evaluated for inflammatory cells, capillary distension, and congestion. A veterinary pathologist scored the severity and distribution of anomalies observed. […]

Consider 1 molecule from US20150126597A1, “GENISTEIN CANCER TREATMENT REGIMEN MAXIMIZING CANCER RADIATION THERAPY BENEFITS” (Humanetics Corporation, priority 2013, published 2015).

Regarding `O=c1c(-c2ccc(O)cc2)coc2cc(O)cc(O)c12` [Genistein, 5,7-dihydroxy-3-(4-hydroxyphenyl)-chromen-4-one], the Solubility in water result in data set [1] was “virtually insoluble in water”. The Oral bioavailability entry in data set [2] is “significantly improved oral bioavailability”. Also, in data set [3], the Uterus wet weight result is on record as “did not dramatically affect the wet uterine weights”.
